Test results from patent US20070280957A1, “Change of the Load State of Mhc Molecules” (priority 2004, published 2007).

Columns and labels:
MHC class II = details: prior-art small molecules with H-donor properties; cited from earlier work
[1] = target: T1, soluble HLA-DR1 (DRB1*0101) (Homo sapiens, UniProt P01903+P01911, A100R/D57E/F55L/F60I/F76Y/I96L/L162R/M171V/P40L/Q125E/R42F/V115G/Y59C); assay: MHC loading assay for identifying immunotoxic compounds (4 hours, ELISA); assay type: biochemical; details: biotinylated HA306-318
T1 construct: shortened α- and […]-chains without the cytoplasmatic and transmembrane portion of the MHC molecule; made in house; host or cells: S2 insect cells

[2] = target: T2, soluble HLA-DR1 (DRA1*0101, DRB1*0101) (Homo sapiens, UniProt P01903+P01911, A100R/D57E/F55L/F60I/F76Y/I96L/L162R/M171V/P40L/Q125E/R42F/V115G/Y59C); assay: Loading of empty soluble HLA-DR1 with biotinylated HA306-318 peptide, sandwich ELISA; assay type: biochemical
T2 construct: shortened α- and […]-chains without the cytoplasmatic and transmembrane portion of the MHC molecule; made in house; host or cells: S2 insect cells
Procedure: In order to monitor catalysis of the loading of HLA-DR molecules by compounds of formulae I, IA, II, III and IV1 to IV3, empty, soluble DR molecules were incubated with biotinylated, high-affinity peptide, and these were then detected in a sandwich ELISA for the MHC complexes.
All the batches were then adjusted to a final volume of 10 μl with 2% BSA-PO4^3− buffer (in the case of HLA-DR1 only with PO4^3− buffer). The reaction was started by incubation at 37° C. in a thermocycler. After 40 minutes, the incubation was terminated and the loading reaction was stopped by storage on ice and addition of 50 μl of ice-cold 1% BSA-PBS.
The detection of bound peptide was carried out by means of a sandwich ELISA. […] Between these steps, the plate was washed twice with PBS-0.05% Tween with the aid of a PW plate-washing device (Tecan Industries) and, before filling with fresh solution, all remaining liquid residues were removed by tapping on Scott®Natura paper towels (Hakle-Kimberly Deutschland GmbH). After blocking of non-specific binding sites, the plate was washed three times and filled with 50 μl/well of 1% BSA-PBS. 2×25 μl per reaction batch were transferred to the plate as double values and were carefully mixed thereon (total volume per well: 75 μl). From each filled series, a further 25 μl/well were then again titrated on the plate in a series of two-stage dilutions (final volume per well: 50 μl). The plates so filled were then stored for 2 hours at 4° C. under stationary conditions. Each plate was then washed six times as described above and filled with 80 μl/well of Eu^3+-streptavidin staining solution (europium-streptavidin stock solution diluted 1:10,000 with 1% BSA-PBS) and incubated for 30 minutes at room temperature (RT). After washing for a further eight times, 100 μl/well of fluorescence-activated solution (enhancer) were then added and the signal was measured by means of a Victor^2-multilabelcounter (Wallac Oy) at an excitation wavelength of 340 nm and an emission wavelength of 615 nm in time-resolving mode.
The following experiment was therefore carried out. One catalyst in a fixed concentration of 0.05 mM was introduced into each of a number of batches for loading HLA-DR1 with HA-biot. The same concentration of a second catalyst was then added to each batch. As controls, 1×1% DMSO was added and, as negative control, a reaction mixture was prepared with 2×1% DMSO. The reaction mixtures were then incubated for 40 minutes as already described and the load was measured in a sandwich ELISA.
The resulting load was then determined in an ELISA using biotinylated peptide (see FIG. 1).
The amount of peptide/MHC complexes formed within this time was then determined by means of an ELISA assay (capture antibody: anti-HLA-DR; detection: fluorescent-labelled streptavidin). The activities of the individual compounds were grouped on the basis of the dose/activity curves obtained thereby.

HLA-DR1 (DRB1*0101) = target: T3, HLA-DR1 (DRB1*0101) (Homo sapiens, UniProt P01903+P01911, A100R/D57E/F55L/F60I/F76Y/I96L/L162R/M171V/P40L/Q125E/R42F/V115G/Y59C); assay: HLA-DR1-restricted T-cell response after catalysed loading of 721.221 cells (EvHA/X5, hCII19.3 T-cells); assay type: cell-based; details: HA306-318 on 721.221 cells, EvHA/X5 T-cells
T3 construct: HLA-DR-expressing 721.221 cells; endogenous in cells; host or cells: 721.221 cells
Excerpt: In the present comparison test, the enhancement of the T-cell response by catalysis of the loading of HLA-expressing cells was investigated. […] Either HA306-318 (see also FIG. 3, left-hand panel) or CO260-273 (see also FIG. 3, right-hand panel) was used as peptide antigen. After the loading, the cells were washed and used to stimulate EvHA/X5 and hCII19.3 cells, respectively.
In order to investigate the catalysis of a HLA-DR1 (DRB1*0101)-restricted T-cell response by various catalytically active adamantyl compounds, dose-activity curves of the catalysis of a HLA-DR1 (DRB1*0101)-restricted T-cell response were prepared. The experiment was carried out analogously to Comparison Experiment 3.3, the peptide antigen HA306-318 being loaded onto 721.221 cells in order thereby to stimulate EvHA/X5 T-cells. […] Because the position of the dose-activity curves is evidently also determined by the side chain, a modulating activity can be attributed thereto.

Row | SMILES | concentration required for use (MHC class II) | catalytic activity on HLA-DR1, dose-activity curves of T-cell stimulation (HLA-DR1 (DRB1*0101)) | other results
1 | CCCO [n-propanol] | over 200 mM |  | 
2 | OCC(O)CNc1ccccc1 (centres unmarked) [III 36, 3-N-phenylaminopropanediol] |  |  | acceleration of the loading of MHC molecules with peptide ligands [1]: able to accelerate the loading of MHC molecules with peptide ligands; activity compared with pCP [1]: markedly lower than that of pCP
3 | Oc1ccccc1-c1ccccc1 [2-HBP] |  |  | relative increase in the load, amount doubled ([2]; 0.05 mM + same concentration of the same catalyst): increases; relative increase in the load ([2]; 0.05 mM catalyst + 1% DMSO, 40 minutes): about 10%
4 | COc1ccc2c(c1)OCC2=NO [#3651, 6-methoxybenzofuran-3(2H)-one-oxime] |  | weaker but still exhibits higher activity than pCP | 
5 | Oc1ccccc1 [phenol] | 30 mM |  | 
6 | CC(C)(O)C1CCC2(C)C(C1)C2(Cl)Cl (centres unmarked) [#4230, 2-(7,7-dichloro-6-methyl-bicyclo[4.1.0]heptan-3-yl)-propan-2-ol] |  | corresponds approximately to that of adamantylethanol | 
